{"source": "patent US7744867B2", "about": "“PTPase inhibitors and method of using same” (The Cleveland Clinic Foundation, priority 2001, dated 2010)", "key": {"[1]": {"molecular_target": "T1, MKP1 (GST fusion protein) (Homo sapiens, UniProt P28562)", "T1 construct": "made in house; host or cells: E. coli DH5a", "T1 sequence (P28562 whole entry, species assumed, the tested form may be a part)": "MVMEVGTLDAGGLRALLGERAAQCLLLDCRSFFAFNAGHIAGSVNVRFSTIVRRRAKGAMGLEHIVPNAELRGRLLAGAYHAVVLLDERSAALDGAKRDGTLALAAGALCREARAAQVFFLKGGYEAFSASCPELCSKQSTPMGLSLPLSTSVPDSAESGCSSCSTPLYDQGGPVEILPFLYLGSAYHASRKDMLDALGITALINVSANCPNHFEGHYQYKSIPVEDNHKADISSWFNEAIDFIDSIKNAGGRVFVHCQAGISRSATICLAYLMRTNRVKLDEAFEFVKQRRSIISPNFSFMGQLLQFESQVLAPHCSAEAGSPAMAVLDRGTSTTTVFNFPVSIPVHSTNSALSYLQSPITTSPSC", "test": "In vitro PTPase assay, dephosphorylation of a synthetic phosphotyrosine peptide", "assay_type": "biochemical", "procedure": "In vitro PTPase activities were measured using the commercial protein tyrosine phosphatase assay kit (UBI) following established procedure. This assay measures the in vitro dephosphorylation of a synthetic phosphotyrosine peptide (R-R-L-I-E-D-A-E-pY-A-A-R-G). Briefly, 0.01 μg of GST/PTPase fusion protein was incubated in 50 μl of Tris buffer (10 mM Tris, pH 7.4) containing different concentrations of inhibitors or chemicals (0 to 1,000 μg/ml) at 22° C. for 10 minutes, followed by addition of 0.2 mM of the phosphotyrosine peptide and incubation at 22° C. for […]. 100 μl of Malachite Green solution was added and incubated for 5 minutes, and the absorbance at 660 nm was measured after 5 minutes."}, "[2]": {"tested_on": "Stat1 tyrosine phosphorylation", "test": "IFNα-induced Stat1 tyrosine phosphorylation in cancer cell lines", "assay_type": "cell-based, human", "procedure": "Induction of Stat1 tyrosine phosphorylation by IFNα and/or sodium stibogluconate. For induction of Stat1 tyrosine phosphorylation by IFNα in the absence or presence of sodium stibogluconate, cells grown in 10% FCS RPMI 1640 medium at 37° C. were stimulated with IFNα (50 u/ml) for various time points and treated with or without sodium stibogluconate for 5 minutes prior to termination by lysing the cells in cold lysis buffer (1% NP-40; 50 mM Tris, pH 7.4; 100 mM NaCl; 1 mM EDTA, 10% glycerol, 10 mM sodium molybdic acid and 4 mM AEBSF).\nCell lysate preparation, SDS-PAGE, and Western blotting. Cell lysates were prepared by lysing cells in cold lysis buffer for 30 min and cleared by centrifuging at 14,000 rpm at 4° C. for 15 min. For SDS-PAGE, cell lysates were mixed with equal volume of 2×SDS-PAGE sample buffer, heated at 90° C. for 5 min and separated in 10% SDS-PAGE gels. Cellular proteins in SDS-PAGE gels were transferred to nitrocellulose membrane (Schleicher & Schuell), blocked in 5% milk, probed with antibodies and detected by using an enhanced chemiluminescence kit (ECL, Amersham)."}, "[3]": {"tested_on": "DU145 human prostate carcinoma xenografts", "test": "Xenografts of human prostate carcinoma in nude mice, tumor volume", "assay_type": "in vivo", "details": "day 25, IFNα 500,000 U s.c. daily, sodium stibogluconate 12 mg Sb s.c. daily, alone or combined", "text": "FIG. 11 illustrates that sodium stibogluconate appears to synergize with IFNα against WM9 human melanoma tumors in nude mice. IFNα or both on the growth of xenografts of human melanoma cell line WM9 and human prostate carcinoma cell line DU-145 in athymic nude mice. Nude mice of 4 weeks old were inoculated subcutaneously (s.c.) with WM9 human melanoma cells (3×10^6 cells/site) (A) or DU-145 human prostate cancer cells (2×10^6 cells/site) (B) on day 0. Starting on day 2, the mice were subjected to no treatment (Control) or treatment with IFNα (500,000 U, s.c., daily), sodium stibogluconate (12 mg, s.c., daily) or both (Combo). Tumor volume in the nude mice (4 mice/group, 2 tumors/mouse) was measured on the days as indicated. Tumor volume was calculated by the equation: (length×width^2)/2 to compare tumor growth rates. All mice survived by the end of the experiment. […]\nFor each of the cell lines, each of 16 mice received subcutaneous injection at the chest area of 3×10^6 cells/site (WM9) or 2×10^6 cells/site (DU145), two sites/mouse, on day 0. […] Tumor size was measured with a caliper to determine the two perpendicular diameters of each tumor. Tumor volume was calculated using the method of the NCI (length×width^2 in millimeters/2=volume in cubic millimeters)."}, "[4]": {"tested_on": "5637 cells (Blader carcinoma)", "test": "Growth inhibition of human tumor cell lines", "assay_type": "cell-based", "details": "SS 12.5 μg/ml, IFNα 1,000 u/ml, alone or combined"}, "prostate cancer": {"tested_on": "prostate cancer", "details": "cited from earlier work"}, "[5]": {"tested_on": "RC45 cells (Renal cell carcinoma)", "test": "Growth inhibition of human tumor cell lines", "assay_type": "cell-based", "details": "SS 12.5 μg/ml, IFNα 1,000 u/ml, alone or combined"}, "WM35 cells (Melanoma)": {"tested_on": "WM35 cells (Melanoma)", "test": "Growth inhibition of human tumor cell lines", "assay_type": "cell-based", "details": "SS 12.5 μg/ml, IFNα 1,000 u/ml, alone or combined"}}, "data": [{"compound": "O.O.O.O.O.O.O.O.O.O=C([O-])[C@@H]1[O][Sb]2([O-])([O][Sb]34([OH])[O][C@H]([C@H](O)CO)[C@H]([O]3)[C@H](C(=O)[O-])[O]4)[O][C@H]([C@H](O)CO)[C@@H]1[O]2.[Na+].[Na+].[Na+]", "note": "[sodium stibogluconate]", "values": [{"measurement": "inhibitory activity against MKP1", "setting": "[1]", "value": "no obvious inhibitory activity"}, {"measurement": "IFNα-induced Stat1 tyrosine phosphorylation relative to control", "setting": "[2]; DR cells, 10 μg/ml, 30 min post-stimulation", "value": "approximately two"}, {"measurement": "Stat1 tyrosine phosphorylation by the drug itself", "setting": "[2]; DR cells, absence of IFNα", "value": "failed to induced"}, {"measurement": "IFNα-induced Stat1 tyrosine phosphorylation", "setting": "[2]; DU145 cells, 5 hours post-stimulation", "value": "Enhanced"}, {"measurement": "IFNα-induced Stat1 tyrosine phosphorylation", "setting": "[2]; WM9 cells, 5 hours post-stimulation", "value": "Enhanced"}, {"measurement": "IFNα-induced Stat1 tyrosine phosphorylation", "setting": "[2]; WM35 cells", "value": "failed to enhance"}, {"measurement": "IFNα-induced Stat1 tyrosine phosphorylation", "setting": "[2]; WiT49-N1 cells", "value": "failed to enhance"}]}, {"compound": "IFNα", "values": [{"measurement": "average tumor volume, of the control", "setting": "[3]", "value": "approximately 70%"}, {"measurement": "% of growth inhibition by day 6 (±s.d.)", "setting": "[4]", "value": "28 (17) %"}, {"measurement": "patients in whom the cytokine is effective", "setting": "prostate cancer", "value": 5, "unit": "%"}, {"measurement": "% of growth inhibition by day 6 (±s.d.)", "setting": "[5]", "value": "70 (15) %"}, {"measurement": "% of growth inhibition by day 6 (±s.d.)", "setting": "WM35 cells (Melanoma)", "value": "19 (3) %"}]}]}
